In ChEMBL document CHEMBL5620401, “Design, synthesis, and biological evaluation of novel spirocyclic compounds as potential anti-glioblastoma agents” (Eur J Med Chem, 2023):
Active and inactive are the calls of the source. The rule behind the calls is not given here.

Columns and labels:
U-87 MG = assay: Antiproliferative activity against human U87 cells assessed as cell viability measured after 72 hrs by MTT assay; format: functional, cell-based, U-87MG ATCC
U-251 [1] = assay: Antiproliferative activity against human U-251 cells assessed as cell viability measured after 72 hrs by MTT assay; format: functional, cell-based; conditions: U-251, 72 h
U-251 [2] = assay: Effect on GSDMD protein expression in human U-251 cells at 1 to 5 uM measured after 48 hrs by Western blot analysis; format: functional, cell-based; conditions: dose 1-5 µM
[3] = Toxicity in BALB/c mouse xenografted with human U-251 cells assessed as pathological changes in liver at 60 mg/kg, ip treated for 5 weeks by hematoxylin and eosin staining based assay; format: organism-based; conditions: in vivo, 840 h
U-251 [4] = assay: Increase in BCL2 homologous antagonist/killer (Bak) expression human U-251 cells measured at 1 to 5 uM after 48 hrs by Western blot analysis; format: functional, cell-based; conditions: dose 1-5 µM
U-251 [5] = assay: Induction of apoptosis in human U-251 cells assessed as late apoptotic cells at 1 uM measured after 48 hrs by Annexin V/PI analysis (reference value: 0.7%); format: functional
[6] = Toxicity in BALB/c mouse xenografted with human U-251 cells assessed as toxicity at 60 mg/kg, ip treated for 5 weeks; format: organism-based; conditions: in vivo, 840 h
U-251 [7] = assay: Induction of apoptosis in human U-251 cells assessed as viable cells at 1 uM measured after 48 hrs by Annexin V/PI analysis (reference value: 96.2%); format: functional; conditions: read-out: Activity
U-251 [8] = assay: Induction of apoptosis in human U-251 cells assessed as early apoptotic cells at 1 uM measured after 48 hrs by Annexin V/PI analysis (reference value: 3.1%); format: functional
U-251 [9] = assay: Increase in caspase 3 expression human U-251 cells measured at 1 to 5 uM after 48 hrs by Western blot analysis; format: functional, cell-based; conditions: dose 1-5 µM
U-251 [10] = assay: Induction of apoptosis in human U-251 cells assessed as late apoptotic cells at 5 uM measured after 48 hrs by Annexin V/PI analysis (reference value: 0.7%); format: functional
U-251 [11] = assay: Induction of apoptosis in human U-251 cells assessed as viable cells at 5 uM measured after 48 hrs by Annexin V/PI analysis (reference value: 96.2%); format: functional; conditions: read-out: Activity
U-251 [12] = assay: Effect on caspase 8 protein expression in human U-251 cells at 1 to 5 uM measured after 48 hrs by Western blot analysis; format: functional, cell-based; conditions: dose 1-5 µM
U-251 [13] = assay: Induction of apoptosis in human U-251 cells assessed as necrotic cells at 1 uM measured after 48 hrs by Annexin V/PI analysis (reference value: 0%); format: functional
U-251 [14] = assay: Decrease in SIRT1 gene expression in human U-251 cells at 5 uM measured after 48 hrs incubation by RT-qPCR analysis; format: functional, cell-based
[15] = Toxicity in BALB/c mouse xenografted with human U-251 cells assessed as pathological changes in lung at 60 mg/kg, ip treated for 5 weeks by hematoxylin and eosin staining based assay; format: organism-based; conditions: in vivo, 840 h
U-251 [16] = assay: Effect on RIPK1 protein expression in human U-251 cells at 1 to 5 uM measured after 48 hrs by Western blot analysis; format: functional, cell-based; conditions: dose 1-5 µM
[17] = Toxicity in BALB/c mouse xenografted with human U-251 cells assessed as pathological changes in spleen at 60 mg/kg, ip treated for 5 weeks by hematoxylin and eosin staining based assay; format: organism-based; conditions: in vivo, 840 h
U-251 [18] = assay: Induction of apoptosis in human U-251 cells assessed as late apoptotic cells at 2.5 uM measured after 48 hrs by Annexin V/PI analysis (reference value: 0.7%); format: functional
U-251 [19] = assay: Induction of apoptosis in human U-251 cells assessed as necrotic cells at 2.5 uM measured after 48 hrs by Annexin V/PI analysis (reference value: 0%); format: functional
U-251 [20] = assay: Induction of apoptosis in human U-251 cells assessed as early apoptotic cells at 5 uM measured after 48 hrs by Annexin V/PI analysis (reference value: 3.1%); format: functional
[21] = Toxicity in BALB/c mouse xenografted with human U-251 cells assessed as pathological changes in heart at 60 mg/kg, ip treated for 5 weeks by hematoxylin and eosin staining based assay; format: organism-based; conditions: in vivo, 840 h
U-251 [22] = assay: Inhibition of colony formation in human U-251 cells; format: functional, cell-based
[23] = Toxicity in BALB/c mouse xenografted with human U-251 cells assessed as body weight change at 60 mg/kg, ip treated for 5 weeks; format: organism-based; conditions: in vivo, 840 h
U-251 [24] = assay: Induction of apoptosis in human U-251 cells assessed as increase in caspase-3 expression measured after 48 hrs by Western blot analysis; format: functional, cell-based; conditions: dose 1-5 µM
U-251 [25] = assay: Effect on ZBP1 protein expression in human U-251 cells at 1 to 5 uM measured after 48 hrs by Western blot analysis; format: functional, cell-based; conditions: dose 1-5 µM
[26] = Toxicity in BALB/c mouse xenografted with human U-251 cells assessed as pathological changes in kidney at 60 mg/kg, ip treated for 5 weeks by hematoxylin and eosin staining based assay; format: organism-based; conditions: in vivo, 840 h
U-251 [27] = assay: Induction of apoptosis in human U-251 cells assessed as early apoptotic cells at 2.5 uM measured after 48 hrs by Annexin V/PI analysis (reference value: 3.1%); format: functional
U-251 [28] = assay: Induction of apoptosis in human U-251 cells assessed as increase in p53 expression measured after 48 hrs by Western blot analysis; format: functional, cell-based; conditions: dose 1-5 µM
U-251 [29] = assay: Anti-GBM effect in human U-251 cells xenografted in BALB/c mouse model assessed as reduction in number of Ki67-positive cells in the tumor at 60 mg/kg, ip treated for 5 weeks by immunohistochemical staining analysis; format: functional, organism-based
U-251 [30] = assay: Induction of apoptosis in human U-251 cells assessed as necrotic cells at 5 uM measured after 48 hrs by Annexin V/PI analysis (reference value: 0%); format: functional
U-251 [31] = assay: Decrease in SIRT1 protein expression in human U-251 cells at 1 to 5 uM by Western blot analysis; format: functional, cell-based; conditions: dose 1-5 µM
U-251 [32] = assay: Increase in acetylated p53 level in SIRT1 overexpressed human U-251 cells at 1 to 5 uM by Western blot analysis; format: functional, cell-based; conditions: dose 1-5 µM
U-251 [33] = assay: Effect on phosphorylated-[…] protein expression in human U-251 cells at 1 to 5 uM measured after 48 hrs by Western blot analysis; format: functional, cell-based; conditions: dose 1-5 µM
U-251 [34] = assay: Effect on RIPK3 protein expression in human U-251 cells at 1 to 5 uM measured after 48 hrs by Western blot analysis; format: functional, cell-based; conditions: dose 1-5 µM
U-251 [35] = assay: Induction of apoptosis in human U-251 cells assessed as increase in BCL2 homologous antagonist/killer (Bak) expression measured after 48 hrs by Western blot analysis; format: functional, cell-based; conditions: dose 1-5 µM
U-251 [36] = assay: Induction of apoptosis in human U-251 cells assessed as viable cells at 2.5 uM measured after 48 hrs by Annexin V/PI analysis (reference value: 96.2%); format: functional; conditions: read-out: Activity
[37] = Permeability coefficient of compound by lipid-PAMPA assay; format: ADME; conditions: read-out: Peff
U-251 [38] = assay: Anti-GBM effect in human U-251 cells xenografted in BALB/c mouse model assessed as inhibition of tumor growth at 60 mg/kg, ip treated for 5 weeks; format: functional, organism-based
U-251 [39] = assay: Increase in acetylated p53 level in human U-251 cells at 1 to 5 uM by Western blot analysis; format: functional, cell-based; conditions: dose 1-5 µM

O=C(/C=C/c1cccc(C(=O)N2CCN(Cc3ccccc3)C23COC3)c1)c1ccncc1 showed an IC50 (U-87 MG) of 7.2 µM and an IC50 (U-251 [1]) of 6.2 µM.
Compound COc1ccc(C(=O)/C=C/c2ccccc2C(=O)N2CCN(Cc3ccccc3)C23COC3)cc1OC has an IC50 (U-87 MG) greater than 10 µM and an IC50 (U-251 [1]) greater than 10 µM.
O=C(/C=C/c1cccc(C(=O)N2CCN(Cc3ccccc3)C23COC3)c1)c1ccccc1 gave an IC50 (U-87 MG) of 3.1 µM and an IC50 (U-251 [1]) of 2.1 µM.
In the case of COc1cc(C(=O)/C=C/c2ccccc2C(=O)N2CCN(Cc3ccccc3)C23COC3)cc(OC)c1OC, the IC50 (U-87 MG) is reported as 5.5 µM and the IC50 (U-251 [1]) is reported as 4.9 µM.
COc1ccc(C(=O)/C=C/c2ccc(C(=O)N3CCN(Cc4ccccc4)C34COC4)cc2)c(OC)c1OC gave an IC50 (U-87 MG) of 3.5 µM and an IC50 (U-251 [1]) of 1.7 µM.
COc1ccc(C(=O)/C=C/c2ccccc2C(=O)N2CCN(Cc3ccccc3)C23COC3)cc1 showed an IC50 (U-87 MG) greater than 10 µM and an IC50 (U-251 [1]) of 11.6 µM.
Compound O=C(/C=C/c1ccc(C(=O)N2CCN(Cc3ccccc3)C23COC3)cc1)c1cccnc1 has an IC50 (U-87 MG) of 7.3 µM and an IC50 (U-251 [1]) of 5.5 µM.
Work on O=C(/C=C/c1ccc(C(=O)N2CCN(Cc3ccccc3)C23COC3)o1)c1ccsc1 yielded an IC50 (U-87 MG) greater than 10 µM and an IC50 (U-251 [1]) of 12.6 µM.
In the case of COc1ccc(C(=O)/C=C/c2ccccc2C(=O)N2CCN(Cc3ccccc3)C23COC3)c(OC)c1OC, the IC50 (U-87 MG) is reported as greater than 10 µM and the IC50 (U-251 [1]) is reported as 11 µM.
COc1ccc(C(=O)/C=C/c2cccc(C(=O)N3CCN(Cc4ccccc4)C34COC4)c2)c(OC)c1OC gave an IC50 (U-87 MG) of 2 µM and an IC50 (U-251 [1]) of 1.2 µM.
With COc1ccc(C(=O)/C=C/c2ccc(C(=O)N3CCN(Cc4ccccc4)C34COC4)cc2)cc1OC the IC50 (U-87 MG) was 3.7 µM and the IC50 (U-251 [1]) was 1.8 µM.
For COc1cc(C(=O)/C=C/c2ccc(C(=O)N3CCN(Cc4ccccc4)C34COC4)cc2)cc(OC)c1OC, the Activity (U-251 [2]) was “inactive”, the Activity [3] was “Non-Toxic” and the IC50 (U-87 MG) was 2.1 µM. For the same compound, the Activity (U-251 [4]) was “inactive”, the Activity (U-251 [5]) was 8.2% and the Activity [6] was “Non-Toxic”. For the same compound, the viability at 1 µM (U-251 [7]) was 79.8%, the Activity (U-251 [8]) was 11.8% and the Activity (U-251 [9]) was “inactive”. For the same compound, the Activity (U-251 [10]) was 67.5%, the viability at 5 µM (U-251 [11]) was 14.7% and the Activity (U-251 [12]) was “inactive”. For the same compound, the Activity (U-251 [13]) was 0.2%, the Activity (U-251 [14]) was “Active” and the Activity [15] was “Non-Toxic”. For the same compound, the Activity (U-251 [16]) was “inactive”, the Activity [17] was “Non-Toxic” and the Activity (U-251 [18]) was 9.2%. The Activity (U-251 [19]) was 0.2%, the Activity (U-251 [20]) was 17.7% and the Activity [21] was “Non-Toxic”. For the same compound, the inhibition (U-251 [22]) was “Dose-Dependent Effect”, the Activity [23] was “Non-Toxic” and the Activity (U-251 [24]) was “Dose-Dependent Effect”. The Activity (U-251 [25]) was “inactive”, the Activity [26] was “Non-Toxic” and the Activity (U-251 [27]) was 16.4%. For the same compound, the Activity (U-251 [28]) was “Dose-Dependent Effect”, the Activity (U-251 [29]) was “Active” and the Activity (U-251 [30]) was 0.1%. The Activity (U-251 [31]) was “Active”, the Activity (U-251 [32]) was “inactive” and the Activity (U-251 [33]) was “inactive”. The Activity (U-251 [34]) was “inactive”, the Activity (U-251 [35]) was “Dose-Dependent Effect” and the viability at 2.5 µM (U-251 [36]) was 74.2%. For the same compound, the Papp [37] was 13.1 ×10⁻⁶ cm/s, the Activity (U-251 [38]) was “Active” and the IC50 (U-251 [1]) was 0.9 µM. The Activity (U-251 [39]) was “Active”.
In the case of O=C(/C=C/c1ccc(C(=O)N2CCN(Cc3ccccc3)C23COC3)s1)c1ccsc1, the IC50 (U-87 MG) is reported as 4.1 µM and the IC50 (U-251 [1]) is reported as 1.9 µM.
For N#Cc1cccc(C(=O)/C=C/c2ccc(C(=O)N3CCN(Cc4ccccc4)C34COC4)cc2)c1, the IC50 (U-87 MG) was 6.1 µM and the IC50 (U-251 [1]) was 5.4 µM.
N#Cc1ccc(C(=O)/C=C/c2ccc(C(=O)N3CCN(Cc4ccccc4)C34COC4)cc2)cc1 showed an IC50 (U-87 MG) of 6.3 µM and an IC50 (U-251 [1]) of 5.4 µM.
Work on O=C(/C=C/c1ccccc1C(=O)N1CCN(Cc2ccccc2)C12COC2)c1ccccc1 yielded an IC50 (U-87 MG) of 10.4 µM and an IC50 (U-251 [1]) of 7.4 µM.
Work on COc1cc(C(=O)/C=C/c2ccc(C(=O)N3CCN(Cc4ccccc4)C34COC4)s2)cc(OC)c1OC yielded an IC50 (U-87 MG) of 4 µM and an IC50 (U-251 [1]) of 2.1 µM.
COc1cc(/C=C/C(=O)c2ccc(C(=O)N3CCN(Cc4ccccc4)C34COC4)s2)cc(OC)c1OC gave an IC50 (U-87 MG) of 2 µM and an IC50 (U-251 [1]) of 1.4 µM.
